9 compounds from patent US20250171495A1, “MUTLI-TARGETED SERINE PROTEASE INHIBITORS FOR TREATMENT OF CANCER AND VIRAL INFECTION” (Washington University, priority 2023, published 2025) can be followed below.

Molecules are shown by their SMILES.

This assay relates to VSV-SARS-CoV-2. The assay can be described thus: microbe, parasite or virus in culture. The conditions noted are these: Vesicular stomatitis virus, Calu-3, in Homo sapiens, read-out: VSV SARS CoV-2 Cell Entry EC50 (nM).
In general, EC50 refers to the concentration that produces a half-maximal response. In the case of `CC(=O)N[C@@H](CCC(N)=O)C(=O)N[C@@H](Cc1ccccc1)C(=O)N[C@@H](CCCNC(=N)N)C(=O)c1nc2ccccc2s1` [MM3144, N-[(S)-1-[N-(S)-1-[(1,3-benzothiazol-2-yl)carbonyl]-4-guanidinobutylcarbamoyl]-2-phenylethyl](S)-2-acetylaminoglutaramide], the concentration giving a half-maximal response (EC50) came to 0.53 nM.
In the case of `CC(=O)N[C@H]1Cc2ccc(cc2)OCCCC[C@@H](C(=O)N[C@@H](CCCNC(=N)N)C(=O)c2nc3ccccc3s2)NC(=O)[C@@H](Cc2c[nH]c3ccccc23)NC1=O` [VD4162B, N-[(S)-1-[(1,3-benzothiazol-2-yl)carbonyl]-4-guanidinobutyl]-(7S,10R,13S)-13-acetylamino-10-[(3-indolyl)methyl]-9,12-dioxo-2-oxa-8,11-diazabicyclo[13.2.2]nonadeca-1(17),15,18-triene-7-carboxamide] it was 2060 nM; in that of `CC(=O)N1CCC[C@H]1C(=O)N[C@@H](CO)C(=O)N[C@@H](CCCCN)C(=O)N[C@@H](CCCNC(=N)N)C(=O)c1nc2ccccc2s1` [MM3194A, N-[(S)-2-hydroxy-1-[N-(S)-5-amino-1-[N-(S)-1-[(1,3-benzothiazol-2-yl)carbonyl]-4-guanidinobutylcarbamoyl]pentylcarbamoy1]ethyl]-(S)-1-acetyl-2-pyrrolidinecarboxamide], 613 nM; in that of `CC(=O)N[C@@H](CO)C(=O)N[C@@H](CCC(N)=O)C(=O)N[C@@H](CC(C)C)C(=O)N[C@@H](CCCNC(=N)N)C(=O)c1nccs1` [ZFH6138, N-[(S)-3-methyl-1-[N-(S)-4-guanidino-1-[(1,3-thiazol-2-yl)carbonyl]butylcarbamoyl]butyl](S)-2-[(S)-2-acetylamino-3-hydroxypropionylamino]glutaramide], 1320 nM.
With `CCC(C)[C@H](NC(C)=O)C(=O)N[C@@H](CCC(N)=O)C(=O)N[C@H](C(=O)N[C@@H](CCCNC(=N)N)C(=O)c1nc2ccccc2s1)C(C)C` (stereo partly drawn) [MM3180-2, N-[(S)-2-methyl-1-[N-(S)-1-[(1,3-benzothiazol-2-yl)carbonyl]-4-guanidinobutylcarbamoyl]propyl](S)-2-[(2S)-2-acetylamino-3-methylvalerylamino]glutaramide] the figure was 12 nM.
On to `CCC(C)[C@H](NC(C)=O)C(=O)N[C@@H](CCC(N)=O)C(=O)N[C@@H](Cc1c[nH]c2ccccc12)C(=O)N[C@@H](CCCNC(=N)N)C(=O)c1nc2ccccc2s1` (stereo partly drawn) [MM3187, N-[(S)-2-(3-indolyl)-1-[N-(S)-1-[(1,3-benzothiazol-2-yl)carbonyl]-4-guanidinobutylcarbamoyl]ethyl](S)-2-[(2S)-2-acetylamino-3-methylvalerylamino]glutaramide], for which the concentration for a half-maximal effect (EC50) stood at 22 nM.
With `CC(=O)N[C@H](Cc1c[nH]c2ccccc12)C(=O)N[C@@H](Cc1ccccc1)C(=O)N[C@@H](CCCNC(=N)N)C(=O)c1nc2ccc(C(=O)O)cc2s1` [PK-1-93, 2-[(S)-2-[(S)-2-[(R)-2-acetylamino-3-(3-indolyl)propionylamino]-3-phenylpropionylamino]-5-guanidinovaleryl]-1,3-benzothiazole-6-carboxylic acid] the figure was 141 nM; with `CCC(C)[C@H](NC(C)=O)C(=O)N[C@@H](CCC(N)=O)C(=O)N[C@@H](Cc1ccccc1)C(=O)N[C@@H](CCCNC(=N)N)C(=O)c1nc2ccccc2s1` (stereo partly drawn) [MM3116, N-[(S)-1-[N-(S)-1-[(1,3-benzothiazol-2-yl)carbonyl]-4-guanidinobutylcarbamoyl]-2-phenylethyl](S)-2-[(2S)-2-acetylamino-3-methylvalerylamino]glutaramide], 3.6 nM.
Turning to `CC(=O)N[C@@H](CC(C)C)C(=O)N[C@@H](CC(C)C)C(=O)N[C@@H](CCCNC(=N)N)C(=O)c1nccs1` [ZFH6201-1, N-[(S)-4-guanidino-1-[(1,3-thiazol-2-yl)carbonyl]butyl](S)-2-[(S)-2-acetylamino-4-methylvalerylamino]-4-methylvaleramide], the 50% effective concentration (EC50) was 1840 nM.
